Tests used:
[1] = Bitterness evaluation of grapefruit juice (flavor comparison by 10 panelists); type: in vivo; conditions: for A: the number of panelists who felt no difference from 3-n-butylphthalide-free / B: the number of panelists who felt some reduction in bitterness / Flavor judgment: the number of panelists who judged it as most proper bitterness / N: the number of panelists who hardly felt bitterness: 10 panelists
Description: 3-n-Butylphthalide was added as a bitterness-improving agent (masking agent for bitterness) of the present invention to commercially available grapefruit juice at the concentrations shown in the following Table 2 to obtain grapefruit juice.

[2] = Bitterness evaluation of green tea drink (flavor comparison by 10 panelists); type: in vivo; conditions: for A: the number of panelists who felt no difference from sedanolide-free / B: the number of panelists who fell some reduction in bitterness / Flavor judgment: the number of panelists who judged it as most proper bitterness / N: the number of panelists who hardly felt bitterness: 10 panelists
Description: Five thousand grams of hot water (containing 0.03% of sodium ascorbate) of 60° C. was added to 100 g of Chinese green tea (second picking tea) produced by Josei (heat treatment by steaming), followed by extraction for 5 min while sometimes stirring. Subsequently, solid-liquid separation with flannel filter was performed to obtain 4500 g of an extract (Bx 0.6°). To the extract, 0.04 g of tannase (Kikkoman Corporation: 5000 U/g) was added. The resulting mixture was left to stand at 40° C. for 1 hour to decompose the gallate-type catechin to non-gallate-type catechin (gallate-type catechin has strong astringency, and non-gallate-type catechin has strong bitterness), followed by heating at 90° C. for 1 min to inactivate the enzyme. After cooling to 20° C., the extract was adjusted to Bx 0.5° with deionized water to obtain green tea extract having strong bitterness. Sedanolide was added as a taste-improving agent (masking agent for bitterness) of the present invention to the resulting extract at the concentrations shown in the following Table 3 to obtain green tea drinks.

[3] = 3-n-butylphthalide 0.01 ppb in grapefruit juice
[4] = 3-n-butylphthalide 0.01 ppm in grapefruit juice
[5] = 3-n-butylphthalide 0.1 ppb in grapefruit juice
[6] = 3-n-butylphthalide 0.1 ppm in grapefruit juice
[7] = 3-n-butylphthalide 1 ppb in grapefruit juice
[8] = 3-n-butylphthalide 1 ppm in grapefruit juice
[9] = 3-n-butylphthalide 1 ppt in grapefruit juice
[10] = 3-n-butylphthalide 10 ppm in grapefruit juice
[11] = sedanolide 0.01 ppb in green tea drink having strong bitterness
[12] = sedanolide 0.01 ppm in green tea drink having strong bitterness
[13] = sedanolide 0.1 ppb in green tea drink having strong bitterness
[14] = sedanolide 0.1 ppm in green tea drink having strong bitterness
[15] = sedanolide 1 ppb in green tea drink having strong bitterness
[16] = sedanolide 1 ppm in green tea drink having strong bitterness
[17] = sedanolide 1 ppt in green tea drink having strong bitterness
[18] = sedanolide 10 ppm in green tea drink having strong bitterness

For `CCCCC1OC(=O)c2ccccc21` (stereo not shown) [3-n-butylphthalide], the “A: the number of panelists who felt no difference from 3-n-butylphthalide-free” value [1, 3] was 7, the “B: the number of panelists who felt some reduction in bitterness” value [1, 3] was 2 and the “Flavor judgment: the number of panelists who judged it as most proper bitterness” value (from here on “Flavor judgment: the number”) [1, 3] was 0. For the same compound, the “N: the number of panelists who hardly felt bitterness” value (“N: the number” below) [1, 3] was 1, the “reduction in bitterness at low concentration” value ([1]; 3-n-butylphthalide 0.01 ppb, grapefruit juice) was “some panelists felt some reduction in bitterness” and the “A: the number of panelists who felt no difference from 3-n-butylphthalide-free” value [1, 4] was 2. For the same compound, the “B: the number of panelists who felt some reduction in bitterness” value [1, 4] was 6, the “Flavor judgment: the number” value [1, 4] was 2 and the “N: the number” value [1, 4] was 2. For the same compound, the “A: the number of panelists who felt no difference from 3-n-butylphthalide-free” value [1, 5] was 4, the “B: the number of panelists who felt some reduction in bitterness” value [1, 5] was 6 and the “Flavor judgment: the number” value [1, 5] was 0. The “N: the number” value [1, 5] was 0, the “A: the number of panelists who felt no difference from 3-n-butylphthalide-free” value [1, 6] was 0 and the “B: the number of panelists who felt some reduction in bitterness” value [1, 6] was 4. The “Flavor judgment: the number” value [1, 6] was 5, the “N: the number” value [1, 6] was 6 and the “A: the number of panelists who felt no difference from 3-n-butylphthalide-free” value [1, 7] was 3. The “B: the number of panelists who felt some reduction in bitterness” value [1, 7] was 7, the “Flavor judgment: the number” value [1, 7] was 0 and the “N: the number” value [1, 7] was 0. The “A: the number of panelists who felt no difference from 3-n-butylphthalide-free” value [1, 8] was 0, the “B: the number of panelists who felt some reduction in bitterness” value [1, 8] was 4 and the “Flavor judgment: the number” value [1, 8] was 3. For the same compound, the “N: the number” value [1, 8] was 6, the “A: the number of panelists who felt no difference from 3-n-butylphthalide-free” value [1, 9] was 9 and the “B: the number of panelists who felt some reduction in bitterness” value [1, 9] was 1. For the same compound, the “Flavor judgment: the number” value [1, 9] was 0, the “N: the number” value [1, 9] was 0 and the “A: the number of panelists who felt no difference from 3-n-butylphthalide-free” value [1, 10] was 0. For the same compound, the “B: the number of panelists who felt some reduction in bitterness” value [1, 10] was 3, the “Flavor judgment: the number” value [1, 10] was 0 and the “N: the number” value [1, 10] was 7. For the same compound, the “overall result of bitterness masking” value ([1]; amount of 3-n-butylphthalide about 0.1 ppb to 1 ppm, grapefruit juice) was “particularly good results were obtained” and the “bitterness of grapefruit juice (judgment)” value ([1]; grapefruit juice containing 0.01 ppb to 10 ppm of 3-n-butylphthalide) was “masked”.

With `CCCCC1OC(=O)C2=CCCCC21` (stereo not shown) [sedanolide] the “overall result of bitterness masking” value ([2]; amount of sedanolide about 0.1 ppb to 1 ppm, green tea drink) was “particularly good results were obtained”, the “bitterness of green tea drink (judgment)” value ([2]; green tea drink containing 0.01 ppb to 10 ppm of sedanolide) was “masked” and the “A: the number of panelists who felt no difference from sedanolide-free” value [2, 11] was 8. For the same compound, the “B: the number of panelists who fell some reduction in bitterness” value [2, 11] was 2, the “Flavor judgment: the number” value [2, 11] was 0 and the “N: the number” value [2, 11] was 0. The “reduction in bitterness at low concentration” value ([2]; sedanolide 0.01 ppb, green tea drink) was “some panelists felt some reduction in bitterness”, the “A: the number of panelists who felt no difference from sedanolide-free” value [2, 12] was 2 and the “B: the number of panelists who fell some reduction in bitterness” value [2, 12] was 6. For the same compound, the “Flavor judgment: the number” value [2, 12] was 2, the “N: the number” value [2, 12] was 2 and the “A: the number of panelists who felt no difference from sedanolide-free” value [2, 13] was 4. The “B: the number of panelists who fell some reduction in bitterness” value [2, 13] was 5, the “Flavor judgment: the number” value [2, 13] was 0 and the “N: the number” value [2, 13] was 1. The “A: the number of panelists who felt no difference from sedanolide-free” value [2, 14] was 0, the “B: the number of panelists who fell some reduction in bitterness” value [2, 14] was 5 and the “Flavor judgment: the number” value [2, 14] was 5. For the same compound, the “N: the number” value [2, 14] was 5, the “A: the number of panelists who felt no difference from sedanolide-free” value [2, 15] was 3 and the “B: the number of panelists who fell some reduction in bitterness” value [2, 15] was 6. For the same compound, the “Flavor judgment: the number” value [2, 15] was 0, the “N: the number” value [2, 15] was 1 and the “A: the number of panelists who felt no difference from sedanolide-free” value [2, 16] was 0. For the same compound, the “B: the number of panelists who fell some reduction in bitterness” value [2, 16] was 5, the “Flavor judgment: the number” value [2, 16] was 3 and the “N: the number” value [2, 16] was 5. The “A: the number of panelists who felt no difference from sedanolide-free” value [2, 17] was 10, the “B: the number of panelists who fell some reduction in bitterness” value [2, 17] was 0 and the “Flavor judgment: the number” value [2, 17] was 0. For the same compound, the “N: the number” value [2, 17] was 0, the “A: the number of panelists who felt no difference from sedanolide-free” value [2, 18] was 0 and the “B: the number of panelists who fell some reduction in bitterness” value [2, 18] was 5. The “Flavor judgment: the number” value [2, 18] was 0 and the “N: the number” value [2, 18] was 5.

Reference: patent US20120231141A1, “BITTERNESS-IMPROVING AGENT FOR BITTER FOOD AND DRINK AND ASTRINGENCY-IMPROVING AGENT FOR ASTRINGENT FOOD AND DRINK” (priority 2009, published 2012)
